From patent US12459951B2, “Compounds that interact with RAS superfamily proteins for treatment of cancers, inflammatory diseases, rasopathies, and fibrotic disease” (SHY Therapeutics, LLC, priority 2022, dated 2025)

Tests used:
TNF-alpha = TNF-alpha Quantification Assay (ELISA), LPS-stimulated RAW 264.7; format: cell-based; details: Mus musculus, RAW264.7; at 10 μM; read-out: TNFα: % inh.
[1] = system: MiaPaca-2 (expressing KRAS G12C mutant); assay: Proliferation Assay (Cell Viability Assay); format: cell-based; details: Homo sapiens, MIA PaCa-2; read-out: Proliferation in MiaPaca-2: IC50
Outline: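 MiaPaca-2 cells (KRAS G12C) were grown in DMEM-high glucose with 10% FBS, seeded at 2000–5000 cells/well and cultured overnight. Compounds were added at 10 μM final, or as serial dilutions for IC50, in 0.3% DMSO/10% FBS for 2–4 days at 37 °C, 5% CO2. Viability was measured with CellTiter 96 Aqueous One and % inhibition calculated.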

[2] = system: Smad2/Smad3 phosphorylation; assay: Phospho-Smad2/3 Inhibition Assay (western blot), Panc-1; format: cell-based, human; details: at 10 μM, Panc-1 pancreatic cancer cell line; starred symbols = activation
Outline: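 Panc-1 cells (KRas G12D), starved overnight in 0.5% FBS, treated 3 h at 37° C with compound at 10 μM final (0.3% DMSO) or serial dilutions for IC50, then stimulated with 10 ng/ml TGF-b1 for 1 h. Phospho-Smad2 (Ser465/467) and phospho-Smad3 (Ser423/425) detected by western blot.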

IL6 = assay: IL-6 Quantification Assay (ELISA), LPS-stimulated RAW 264.7; format: cell-based; set-up: inhibition: dose or concentration left out as unconfirmed; details: Mus musculus, RAW264.7, read-out: IL-6: % inh.

IC50 [1] [nM]	SMILES	inhibition at 10 µM (TNF-alpha) [%]	% inh of Smad2/3 phosphorylation in Panc-1 [2]	inhibition at 10 µM (IL6; at 10 μM) [%]	inhibition (IL6) [%]
> 1000	COc1cccc(Nc2nc(-c3nccn3C)nn3cc(-c4ccn(C(C)C)n4)c(-c4ccccc4)c23)n1 [Compound 23, 6-(1-Isopropyl-1H-pyrazol-3-yl)-N-(6-methoxypyridin-2-yl)-2-(1-methyl-1H-imidazol-2-yl)-5-phenylpyrrolo[2,1-f][1,2,4]triazin-4-amine]	75 to 100	0 (0 = 0% inhibition)		75 to 100
< 150	Cc1c(-c2ccn(C(C)C)n2)cn2nc(-c3nccn3C)nc(Nc3ccccn3)c12 [Compound 57, 6-(1-Isopropyl-1H-pyrazol-3-yl)-5-methyl-2-(1-methyl-1H-imidazol-2-yl)-N-(pyridin-2-yl)pyrrolo[2,1-f][1,2,4]triazin-4-amine]	0	A* (A* = 1-25% activation)		1 to 24
< 150	Cc1c(-c2ccn(C)n2)cn2nc(-c3nccn3C)nc(Nc3cc(-c4ccccc4)[nH]n3)c12 [Compound 263, 5-Methyl-2-(1-methyl-1H-imidazol-2-yl)-6-(1-methyl-1H-pyrazol-3-yl)-N-(5-phenyl-1H-pyrazol-3-yl)pyrrolo[2,1-f][1,2,4]triazin-4-amine]	50 to 74	C (C = 46-75% inhibition)		75 to 100
< 150	COc1cc(Nc2nc(-c3nccn3C)nn3cc(-c4ccn(C)n4)c(C)c23)ncc1-n1cnc(C)c1 [Compound 244, N-(4-Methoxy-5-(4-methyl-1H-imidazol-1-yl)pyridin-2-yl)-5-methyl-2-(1-methyl-1H-imidazol-2-yl)-6-(1-methyl-1H-pyrazol-3-yl)pyrrolo[2,1-f][1,2,4]triazin-4-amine]	0	A* (A* = 1-25% activation)		0
> 1000	Cc1c(-c2ccn(C)n2)cn2nc(-c3nccn3C)nc(Nc3cc(OC(F)F)n(C)n3)c12 [Compound 254, N-(5-(Difluoromethoxy)-1-methyl-1H-pyrazol-3-yl)-5-methyl-2-(1-methyl-1H-imidazol-2-yl)-6-(1-methyl-1H-pyrazol-3-yl)pyrrolo[2,1-f][1,2,4]triazin-4-amine]	0	B* (B* = 26-45% activation)		25 to 49
> 1000	COc1ccc(Nc2nc(-c3nccn3C)nn3cc(-c4ccn(C(C)C)n4)c(C)c23)cn1 [Compound 71, 6-(1-Isopropyl-1H-pyrazol-3-yl)-N-(6-methoxypyridin-3-yl)-5-methyl-2-(1-methyl-1H-imidazol-2-yl)pyrrolo[2,1-f][1,2,4]triazin-4-amine]	0	0 (0 = 0% inhibition)		0
150 to 500	COc1cnc(Nc2nc(-c3nccn3C)nn3cc(-c4ccn(C(C)C)n4)c(C)c23)nc1 [Compound 56, 6-(1-Isopropyl-1H-pyrazol-3-yl)-N-(5-methoxypyrimidin-2-yl)-5-methyl-2-(1-methyl-1H-imidazol-2-yl)pyrrolo[2,1-f][1,2,4]triazin-4-amine]	1 to 24	D* (D* = 76-100% activation)		25 to 49
< 150	COc1cc(Nc2nc(-c3nccn3C)nn3cc(-c4ccn(C)n4)c(C)c23)ncn1 [Compound 63, N-(6-Methoxypyrimidin-4-yl)-5-methyl-2-(1-methyl-1H-imidazol-2-yl)-6-(1-methyl-1H-pyrazol-3-yl)pyrrolo[2,1-f][1,2,4]triazin-4-amine]	1 to 24	D* (D* = 76-100% activation)		1 to 24
150 to 500	Cc1c(-c2ccn(C(C)C)n2)cn2nc(-c3nccn3C)nc(Nc3nnco3)c12 [Compound 59, N-(6-(1-Isopropyl-1H-pyrazol-3-yl)-5-methyl-2-(1-methyl-1H-imidazol-2-yl)pyrrolo[2,1-f][1,2,4]triazin-4-yl)-1,3,4-oxadiazol-2-amine]	1 to 24	D (D = 76-100% inhibition)		25 to 49
> 1000	Cc1c(-c2ccn(C(C)C)n2)cn2nc(-c3nccn3C)nc(Nc3ccncc3)c12 [Compound 52, 6-(1-Isopropyl-1H-pyrazol-3-yl)-5-methyl-2-(1-methyl-1H-imidazol-2-yl)-N-(pyridin-4-yl)pyrrolo[2,1-f][1,2,4]triazin-4-amine]	1 to 24	D (D = 76-100% inhibition)		0
< 150	Cc1c(-c2ccn(C(C)C)n2)cn2nc(-c3nccn3C)nc(Nc3ncccn3)c12 [Compound 54, 6-(1-Isopropyl-1H-pyrazol-3-yl)-5-methyl-2-(1-methyl-1H-imidazol-2-yl)-N-(pyrimidin-2-yl)pyrrolo[2,1-f][1,2,4]triazin-4-amine]	1 to 24	A (A = 1-25% inhibition)		25 to 49

Second part, the compound before the results:

SMILES	IC50 [1] [nM]	inhibition at 10 µM (TNF-alpha) [%]	% inh of Smad2/3 phosphorylation in Panc-1 [2]	inhibition at 10 µM (IL6; at 10 μM) [%]	inhibition (IL6) [%]
COc1cccc(-c2cn3nc(-c4nccn4C)nc(N[C@H]4C[C@H](OC)C4)c3c2-c2ccccn2)c1F [Compound 45, 6-(2-Fluoro-3-methoxyphenyl)-N-((1r,3r)-3-methoxycyclobutyl)-2-(1-methyl-1H-imidazol-2-yl)-5-(pyridin-2-yl)pyrrolo[2,1-f][1,2,4]triazin-4-amine]	> 1000	75 to 100	0 (0 = 0% inhibition)	75 to 100	
Cc1c(-c2ccn(C)n2)cn2nc(-c3nccn3C)nc(Oc3cc(N)[nH]n3)c12 [Compound 262, 3-((5-Methyl-2-(1-methyl-1H-imidazol-2-yl)-6-(1-methyl-1H-pyrazol-3-yl)pyrrolo[2,1-f][1,2,4]triazin-4-yl)oxy)-1H-pyrazol-5-amine]	> 1000	0	B* (B* = 26-45% activation)		1 to 24
COc1cccc(-c2cn3nc(-c4nccn4C)nc(N[C@@H]4CC[C@@H](OC)C4)c3c2-c2ccccn2)c1F (racemic) [Compound 46, rac 6-(2-Fluoro-3-methoxyphenyl)-N-((1R,3R)-3-methoxycyclopentyl)-2-(1-methyl-1H-imidazol-2-yl)-5-(pyridin-2-yl)pyrrolo[2,1-f][1,2,4]triazin-4-amine]	> 1000	75 to 100	0 (0 = 0% inhibition)		75 to 100
COc1cccc(-c2cn3nc(-c4nccn4C)nc(N[C@H]4C[C@H](OC)C4)c3c2-c2ccccn2)c1C [Compound 274, 6-(3-Methoxy-2-methylphenyl)-N-((1r,3r)-3-methoxycyclobutyl)-2-(1-methyl-1H-imidazol-2-yl)-5-(pyridin-2-yl)pyrrolo[2,1-f][1,2,4]triazin-4-amine]	150 to 500	75 to 100	D (D = 76-100% inhibition)		75 to 100
COCCNc1nc(-c2nccn2C)nn2cc(-c3cccc(OC)c3Cl)c(-c3ccccc3)c12 [Compound 29, 6-(2-Chloro-3-methoxyphenyl)-N-(2-methoxyethyl)-2-(1-methyl-1H-imidazol-2-yl)-5-phenylpyrrolo[2,1-f][1,2,4]triazin-4-amine]	510 to 1000	75 to 100	D (D = 76-100% inhibition)		75 to 100
COc1cc(-c2cn3nc(-c4nccn4C)nc(Nc4cc(OC)ncn4)c3c2C)ccn1 [Compound 50, 6-(2-Methoxypyridin-4-yl)-N-(6-methoxypyrimidin-4-yl)-5-methyl-2-(1-methyl-1H-imidazol-2-yl)pyrrolo[2,1-f][1,2,4]triazin-4-amine]	< 150	0	B (B = 26-45% inhibition)		1 to 24
COc1cc(Nc2nc(-c3nccn3C)nn3cc(-c4cccc(OC)n4)c(C)c23)ncn1 [Compound 65, 6-(6-Methoxypyridin-2-yl)-N-(6-methoxypyrimidin-4-yl)-5-methyl-2-(1-methyl-1H-imidazol-2-yl)pyrrolo[2,1-f][1,2,4]triazin-4-amine]	< 150	1 to 24	A* (A* = 1-25% activation)		1 to 24
COc1ccnc(Nc2nc(-c3nccn3C)nn3cc(-c4ccn(C)n4)c(C4CC4)c23)c1 [Compound 276, 5-Cyclopropyl-N-(4-methoxypyridin-2-yl)-2-(1-methyl-1H-imidazol-2-yl)-6-(1-methyl-1H-pyrazol-3-yl)pyrrolo[2,1-f][1,2,4]triazin-4-amine]	150 to 500	0	B (B = 26-45% inhibition)		50 to 74
COc1cccc(-c2cn3nc(-c4nccn4C)nc(N[C@H]4C[C@@H](OC)C4)c3c2-c2ccccc2)c1C [Compound 269, 6-(3-Methoxy-2-methylphenyl)-N-((1s,3s)-3-methoxycyclobutyl)-2-(1-methyl-1H-imidazol-2-yl)-5-phenylpyrrolo[2,1-f][1,2,4]triazin-4-amine]	510 to 1000	75 to 100	D (D = 76-100% inhibition)		75 to 100
